In experiment [1] the test system is TamR-tf (HEA3). The experiment can be described thus: Inducible CD19CAR/Her2t expression in Jurkat cells transduced with TamR CD19CAR LV containing DHFRdm (flow cytometry and western blot). Format: cell-based, human. The following applies: construct including DHFRdm, 500 nM 4OHT (FIG. 7). The method, then: Construction of TamR CD19CAR LV was done through dual packaging of constructs A and B. Construct A contains HEA3 linked via a ribosomal cleavage sequence, T2A, to the tracking and selection marker EGFRt.
Cells were transduced with TamR CD19CAR LV at a MOI of 1, expanded in culture, selected for EGFRt via magnetic bead selection. Following further expansion cells were treated with […] alone (EtOH) or 500 nM 4OHT, and harvested for flow cytometry, (upper panel). FIG. 7. Samples were stained with EGFRt-APC antibody and Herceptin-biotin, followed by SA-PE. Parental (untransduced Jurkat) is shown for comparison. Samples were also prepared for western blot, the primary antibody used is an anti-CD247 mouse mAb which recognizes the intracellular CD3 zeta chain on the CD19CAR (˜48 kDa). The endogenous CD3 zeta migrates at ˜23 kDa.

Experiment [2] relates to TamR-tf (HEA3). The experiment can be described thus: ZsGreen expression in primary CD4 central memory cells transduced with constructs A and B. The format is cell-based, human. The note with it: inducer plus antiCD3/anti-CD28 beads (FIG. 4B). On the procedure:
CD4 central memory cells were obtained from peripheral blood by selecting cells through flow cytometry for markers CD4, and CD62L and negative for CD45RO. Cells were cultured with anti-CD3/anti-CD28 beads for 3 days.
(§1) After 3 days, CD4 or CD8 central memory cells were transduced at a MOI of 5 with lentivirus packaging constructs described above in which a dual packaging approach in which each plasmid is co-transfected into 293T cells during lentiviral production. This construct utilized molar ratio of 1:2 of construct A to construct B. Construct A encodes the chimeric transcription factor HEA3 linked via a ribosomal cleavage sequence, T2A, to the tracking and selection marker EGFRt. Construct B encodes the synthetic, HEA3-responsive promoter, 7xHBD/mE1b which regulates expression of the transgene ZsGreen-DR1, a short half-life green fluorescent reporter gene.
(§2) On day 21 after transduction, cells were enriched for EGFRt, and subsequently expanded with feeder cells, IL2, and IL15. Following expansion, cells were divided into 3 treatment groups, 4OHT alone (A), 4OHT combined with CD3/CD28 bead cotreatment (B) or 4OHT alone for 48 hours, followed by addition of CD3/CD28 beads (C). […] All samples were harvested at indicated time points following 4OHT treatment, stained with EGFRt-biotin antibody, followed by SA-APC, and analyzed for flow cytometry. […]

Experiment [3] relates to TamR-tf (HEA3). The experiment can be described thus: Inducible CD19CAR/Her2t expression in Jurkat cells transduced with TamR-CD19CAR LV (flow cytometry and western blot). The format is cell-based, human. The note with it: construct not including DHFRdm, 500 nM 4OHT (FIG. 6). From the text: Construction of the vector was accomplished by dual packaging of transfer plasmids housing constructs as described above at a plasmid molar ratio of 1:1. (See FIGS. 6C and 7C) Construct A under the constitutive EF-lalpha promoter encodes TamR-tf (HEA3) linked via a ribosomal cleavage sequence, T2A, to the tracking and selection marker EGFRt. (See FIGS. 9A, 9B and 9C; SEQ ID NO: 39, Table 1: SEQ ID NO: 8 and SEQ ID NO: 9) Construct B contains the 7xHBD/mE1b promoter with downstream transgene cDNA including CD19CAR linked via 2a cleavage sequence to Her2t, a tracking and selection marker. (See Table 12; SEQ ID NO: 41; Table 2 SEQ ID NO: 10; FIG. 11; SEQ ID NO: 44). Another construct was prepared adding an additional selective marker DHFRdm (See FIG. 12; SEQ ID NO: 46).
Human Jurkat cells were transduced at a MOI of 2, then were expanded in culture, and selected for EGFRt+ cells via magnetic bead selection. After further expansion, cells were either treated with vehicle alone (EtOH) or 500 nM 4OHT, and harvested for flow cytometry. Samples were stained with EGFRt-APC antibody and Herceptin-biotin, followed by SA PE. Samples were also prepared for western blot, the primary antibody used is an anti-CD247 mouse mAb which recognizes the intracellular CD3 zeta chain on the CD19CAR (˜48 kDa). The endogenous CD3 zeta migrates at ˜23 kDa.

For experiment [4], the system named is TamR-tf (HEA3). The experiment can be described thus: Inducible Her2t expression in human CD4 central memory T cells transduced with TamR CD19CAR LV (with DHFRdm). Format: cell-based. The note with it: 500 nM 4OHT for 24 hours plus antiCD3/antiCD28 beads (FIG. 8). The method, then:
CD4 central memory cells were obtained from peripheral blood by selecting cells through flow cytometry for markers CD4, and CD62L and negative for CD45RO. Cells were cultured anti-CD3/anti-CD28 beads for 3 days. After 3 days, CD4 Central memory cells were transduced at a MOI of 5 with a lentivirus which packages constructs A and B. (FIG. 8B). Construct A encodes the chimeric transcription factor HEA3 linked via a ribosomal cleavage sequence, T2A, to the tracking and selection marker EGFRt. (See FIGS. 9A, 9B and 9C; SEQ ID NO: 39; Table 1; SEQ ID NO: 8 and SEQ ID NO: 9). […] (See Table 12; SEQ ID NO: 41; Table 2 SEQ ID NO: 10; FIG. 11; SEQ ID NO: 44; FIG. 12; SEQ ID NO: 46).
On day 21 after transduction, cells were enriched for EGFRt utilizing magnetic bead selection, and subsequently expanded with irradiated feeder cells, IL2, and IL15. Two weeks after expansion, cells were cryopreserved. In the experiment depicted above, CD4+ CEM cells which were mock transduced, or CD4+TamR CD19CAR LV were thawed, placed in culture with CD3/CD28 beads, IL-2, IL-15. CD4+TamRCD19CAR LV were treated or not with 500 nM 4OHT for 24 hours. All samples were harvested washed, then stained with an EGFRt-APC antibody and Her2t-biotin, followed by SA-PE, and analyzed via flow cytometry.

Experiment [5] concerns TamR-tf (HEA3). The experiment can be described thus: ZsGreen expression in primary CD8 central memory cells transduced with constructs A and B. The format is cell-based, human. The note with it: inducer plus antiCD3/anti-CD28 beads (FIG. 5B). On the procedure:
CD8 central memory cells were obtained from peripheral blood by selecting cells through flow cytometry for markers CD8, and CD62L and negative for CD45RO. Cells were cultured with anti-CD3/anti-CD28 beads for 3 days.
as §1, §2

The subject of experiment [6] is TamR-tf (HEA3). Nature of the experiment: 4OHT dose response of ZsGreen expression in transduced Jurkat cells. The format is cell-based, human. The note with it: 4OHT 0 nM-1000 nM, flow cytometry (FIG. 2).
Source text: as §1, with “Jurkat” for “After 3 days, CD4 or CD8 central memory”
Cells were harvested and were then subjected to treatment with 4OHT with concentrations ranging from 0 nM-1000 nM, as indicated. Samples were harvested, washed, and stained with EGFRt-biotin, followed by strepavidin-APC, and then analyzed by flow cytometry for ZsGreen expression.
In general terms: Flow cytometry measures light scatter and fluorescence of single cells or particles in a stream.

For experiment [7], the system named is TamR-tf (HEA3). Nature of the experiment: ZsGreen expression by flow cytometry in Jurkat cells transduced with dual packaged TamR ZsGreen lentivirus (constructs A and B). The format is cell-based, human. The note with it: 500 nM 4OHT for 24 hours, flow cytometry (FIG. 1). From the text: An alternative of the TamR-LV system allows for constitutive HEA3 expression and inducible expression of either ZsGreen or chimeric antigen receptors, permitting kinetic analysis and biological effect controlled in an “ON” and “OFF” manner by the presence or absence of tamoxifen. For this, two constructs were used: 1) HEA-3 is driven by the human EF1 a promoter and linked to the constructed truncated EGFR (EGFRt) transmembrane marker protein by a T2A skip-linker sequence and cloned into a third generation epHIV7 self-inactivating lentivirus packaging plasmid (construct A). (See FIGS. 9A, 9B and 9C; SEQ ID NO: 39; Table 1: SEQ ID NO: 8 and SEQ ID NO: 9) and 2) 7xHBD/[…] controls tamoxifen-dependent expression of ZsGreen cloned into pcDNA3.1(−) which was engineered to lack the commercially used CMV promoter (construct B) (See Table 12; SEQ ID NO: 41). ZsGreen1 is a human codon-optimized ZsGreen variant that encodes the brightest commercially available green fluorescent protein. (Available from Clontech).
Jurkat cells were transduced at a MOI of 5 with lentivirus packaging constructs described above in which a dual packaging approach in which each plasmid is co-transfected into 293T cells during lentiviral production. […]

Experiment [8] concerns TamR-tf (HEA3). Nature of the experiment: On and off rate kinetics of ZsGreen expression in transduced Jurkat cells (4OHT washout and re-stimulation). The format is cell-based, human.
Source text: as §1, with “Jurkat” for “After 3 days, CD4 or CD8 central memory”
The population was subjected to 500 nM 4OHT stimulation for 48 hours, and then sorted for ZsGreen+cells utilizing FACS, yielding a >99% ZsGreen+population on immediate post-sort analysis. Cells were subsequently expanded in culture for 3 weeks, and then prepared for kinetic studies. Cells were divided into 3 treatment groups: (1) no 4OHT (2) 200 nM 4OHT (added every 48 hours) (3) 24 hour 200 nM 4OHT, followed by washout 1× in PBS, then culture in 4OHT free media for 14 days, followed by a 24 hour re-stimulation with 200 nm 4OHT, and then washout in 1×PBS. At each time point, samples were harvested and analyzed via flow cytometry for ZsGreen expression. Results are shown in FIG. 3 and are presented as % ZsGreen+.

`CC/C(=C(\c1ccccc1)c1ccc(OCCN(C)C)cc1)c1ccccc1` [tamoxifen, 2-(4-((1Z)-1,2-diphenyl-1-butenyl)phenoxy)-N,N-dimethyl-ethanamine]: the figures for the “cells expressing both EGFRt and Her2t” value in the experiment on TamR-tf (HEA3) [1] and in the experiment with TamR-tf (HEA3) [3] were “about 7.5%” and “about 42.6%”, respectively. The “primary transduced CD4 cells expressing ZsGreen” value in the experiment on TamR-tf (HEA3) [2] is reported as “About 70%”. In the experiment with TamR-tf (HEA3) [4], the “primary cells expressing both EGFRt and Her2t” value is on record as “about 14.7%”. The “primary transduced CD8 cells expressing ZsGreen” value in the experiment with TamR-tf (HEA3) [5] is “About 37%”.

Regarding `CC/C(=C(\c1ccc(O)cc1)c1ccc(OCCN(C)C)cc1)c1ccccc1` [4-OHT, 4-hydroxytamoxifen], the “concentration effective to induce expression of the transgene (ZsGreen)” value in the experiment on TamR-tf (HEA3) [6] is given as ≥ 200 nM. Further, the “cells expressing ZsGreen” value in the experiment with TamR-tf (HEA3) [7] is listed as “about 50%”. For the same compound, the “ZsGreen expression after 4-OHT washout, % of the max ZsGreen activity” value in the experiment on TamR-tf (HEA3) [8] (200 nM 4OHT then washout, within 5 days (FIG. 3)) is on record as “less than 10%”. The “ZsGreen activity after 4-OHT is added back, % max activity” value in the experiment with TamR-tf (HEA3) [8] (re-stimulation with 200 nM 4OHT, within 2 days (FIG. 3)) was “about 100%”.

Source of the values: patent US11155616B2, “Drug regulated transgene expression” (Seattle Children's Hospital, priority 2014, dated 2021).
